Reference: patent publication US9169241B2, “Quinolinyloxyphenylsulfonamides” (Max-Planck-Gesellschaft Zur Forderung der Wissenschaften …, priority 2009, dated 2015)

Key:
Hs578T [1] = experiment: Wound healing migration assay; assay type: cell-based; settings: Homo sapiens, Hs-578T; HS578T cell line; Table Ib
In short: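 Compound exposure at 12.5, 6.25 and 3.125 μM, with DMSO control, on scratch-wounded monolayers (150000 cells/24 well, overnight). Wound closure imaged by microscopy, fixed with crystal violet after 48 h or 72 h depending on cell line; IC50 is the concentration giving 50% wound size between t0 and t48/t72.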

Hs578T [2] = experiment: Matrigel outgrowth assay/branching assay; assay type: cell-based; settings: Homo sapiens, Hs-578T; HS578T cell line; Table Ib; read-out: Total branching inhibition in Matrigel HS578T
In short: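 Matrigel 3 mg/ml, polymerized 1 h 37° C; 5000 cells/well + cmpd 3.125/1.56/0.78 μM or DMSO. Imaged 48/72/96 h, 5× objective. Positive = total branching block.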

Hs578T [3] = experiment: Cell vitality assay (ATP assay, CellTiter-Glo); assay type: cell-based; settings: Homo sapiens, Hs-578T; HS578T cell line, 72 h; Table Ib; read-out: IC50 ATP-Assay HS578T after 72 h
In short: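 Luminescent ATP read-out of viable cells; IC50 = concentration at which ATP falls to 50% of DMSO control. Cells seeded at 1000/well, treated 72 h with seven concentrations from 0.195 to 12.5 μM.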

[4] = biological target: T1, wild type AXL (wtAXL) receptor tyrosine kinase (Homo sapiens, UniProt P30530); experiment: NIH-3T3-AXL cellular kinase assay (pY-AXL-ELISA); assay type: cell-based; settings: NIH-3T3-AXL (clone 22) cells, serum depleted, compounds 1 h; Table Ia
T1 construct: WtAXL cDNA was cloned into vector pLXSN(ESK) and transfected into Phoenix E packaging cells; expressed in transfected cells; host or cells: NIH3T3 N7 (mouse fibroblasts), retrovirally infected, clone 22
T1 sequence (P30530 26-894): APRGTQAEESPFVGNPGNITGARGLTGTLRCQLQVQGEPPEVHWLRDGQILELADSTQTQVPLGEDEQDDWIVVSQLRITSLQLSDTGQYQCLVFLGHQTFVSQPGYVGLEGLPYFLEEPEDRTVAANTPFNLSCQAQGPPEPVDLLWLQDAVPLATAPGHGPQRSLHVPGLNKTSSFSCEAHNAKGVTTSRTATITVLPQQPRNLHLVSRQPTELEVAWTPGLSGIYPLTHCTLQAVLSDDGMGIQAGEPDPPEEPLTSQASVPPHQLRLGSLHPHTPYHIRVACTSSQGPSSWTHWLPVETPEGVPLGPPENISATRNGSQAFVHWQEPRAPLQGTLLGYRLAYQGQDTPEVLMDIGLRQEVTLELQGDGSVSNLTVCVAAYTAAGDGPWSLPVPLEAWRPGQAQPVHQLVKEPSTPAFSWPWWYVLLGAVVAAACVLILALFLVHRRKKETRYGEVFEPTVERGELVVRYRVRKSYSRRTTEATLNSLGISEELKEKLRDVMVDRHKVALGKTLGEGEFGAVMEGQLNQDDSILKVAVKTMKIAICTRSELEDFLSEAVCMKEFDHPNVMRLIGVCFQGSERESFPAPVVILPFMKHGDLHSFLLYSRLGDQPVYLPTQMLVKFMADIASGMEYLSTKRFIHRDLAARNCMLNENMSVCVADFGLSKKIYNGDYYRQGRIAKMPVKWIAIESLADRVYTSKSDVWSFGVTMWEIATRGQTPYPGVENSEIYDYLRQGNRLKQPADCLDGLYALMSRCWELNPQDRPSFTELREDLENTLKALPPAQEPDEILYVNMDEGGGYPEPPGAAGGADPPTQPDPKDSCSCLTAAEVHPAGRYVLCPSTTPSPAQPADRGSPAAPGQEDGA
Procedure: WtAXL cDNA was cloned into vector pLXSN(ESK) and transfected into Phoenix E packaging cells. The viral supernatant was collected and used to infect target cells NIH3T3 N7. Monoclonal NIH3T3-AXL cell lines stably expressing wtAXL were generated by selecting retrovirally infected cells in medium containing puromycin (2 μg/ml) and subsequent clonal separation.
Serial dilutions of compounds were added, and the cells were further incubated for 1 h. Cells were washed with PBS and lysed on ice in 500 μl lysis buffer (50 mM HEPES (pH 7.5), 150 mM NaCl, 1 mM EGTA, 10% Glycerol, 1% Triton X-100, 100 mM NaF, 10 mM Na4P2O7.10H2O, 1 mM Na3VO4, 1 mM phenylmethylsulfonyl fluoride, and […]) for 15 min. The cell lysate were used for phosphotyrosine AXL enzyme-linked immunosorbant assay (pY-AXL-ELISA). […] Subsequently 96-well plates were blocked with PBS-0.05% Tween®20+10% FBS for 4 h at 37° C. Plates were washed 5 times with PBS-0.05% Tween®20 and 95 μl of lysate was transferred per well for incubation overnight at 4° C. Plates were washed 5 times with PBS-0.05% Tween®20 (Sigma, Steinheim, Germany). For detection of phosphorylated tyrosine we used homemade biotynilated 4G10-antibody (0.5 μg/ml) in PBS-0.05% Tween®20+10% FBS (100 μl/well) and incubated the 96-well plate for 2 h at room temperature. The anti-phosphotyrosine mouse monoclonal antibody 4G10 was biotynilated with Sulfo-NHS®-Biotin according to the suppliers protocol (Pierce, Rockford, Ill., USA) and purified by Mirco Bio-Spin 6 Chromatograpy Columns (BIO RAD Laboratories, Inc., Hercules, Calif., USA) using PBS as diluent. Plates were washed 5 times with PBS-0.05% Tween®20. For biding to biotin Alkaline Phosphatase Conjugated Strepavidin SA110 (Millipore, Billerica, Mass., USA) (1:4000) was used in PBS-0.05% Tween20+10% FBS (100 μl/well) and incubated for 30 min at room temperature. Plates were washed 5 times with PBS-0.05% Tween20. For fluorimetric detection of alkaline phosphatase AttoPhos Substrate Set (Roche diagnostics GmbH, Mannheim, Germany) was used (100 μl/well). The fluorimetric signal was quantified after 90 min at 430/560 nm wavelength using a TECAN Ultra Evolution plate reader (Tecan Deutschland GmbH, Crailsheim, Germany).

Row | SMILES | IC50 (Hs578T [1]) | IC50 (Hs578T [2]) | melting point | IC50 (Hs578T [3]) | IC50 [4]
1 | COc1cc2c(Oc3ccc(NS(=O)(=O)c4ccccc4F)cc3Cl)ccnc2cc1OCCCN1CCN(C)CC1 [Example 111, N-(3-Chloro-4-{6-methoxy-7-[3-(4-methyl-piperazin-1-yl)-propoxy]-quinolin-4-yloxy}-phenyl)-2-fluoro-benzenesulfonamide] | ≤ 12.5 µM | ≤ 10 µM | 170 to 171 °C | ≤ 12.5 µM | < 0.5 µM
2 | COc1cc2c(Oc3ccc(NS(=O)(=O)c4csc5ccccc45)cc3F)ccnc2cc1OCCCN1CCCCC1 [Example 113, Benzo[b]thiophene-3-sulfonic acid {3-fluoro-4-[6-methoxy-7-(3-piperidin-1-yl-propoxy)-quinolin-4-yloxy]-phenyl}-amide] | ≤ 12.5 µM | ≤ 10 µM | 128 to 130 °C | ≤ 12.5 µM | < 0.5 µM
3 | COc1cc2c(Oc3ccc(NS(=O)(=O)c4csc5ccccc45)cc3F)ccnc2cc1OCCCN1CCOCC1 [Example 114, Benzo[b]thiophene-3-sulfonic acid {3-fluoro-4-[6-methoxy-7-(3-morpholin-4-yl-propoxy)-quinolin-4-yloxy]-phenyl}-amide] | 12.5 to 50 µM | 10 to 25 µM | 196 to 197 °C | ≤ 12.5 µM | < 0.5 µM
4 | COc1cc2c(Oc3ccc(NS(=O)(=O)c4csc5ccccc45)cc3F)ccnc2cc1OCCCN1CCC(C)CC1 [Example 115, Benzo[b]thiophene-3-sulfonic acid (3-fluoro-4-{6-methoxy-7-[3-(4-methyl-piperidin-1-yl)-propoxy]-quinolin-4-loxy}-phenyl)-amide] | ≤ 12.5 µM | ≤ 10 µM | 132 to 135 °C | ≤ 12.5 µM | < 0.5 µM
5 | COc1cc2c(Oc3ccc(NS(=O)(=O)c4csc5ccccc45)cc3F)ccnc2cc1OCCCN1CCN(C)CC1 [Example 116, Benzo[b]thiophene-3-sulfonic acid (3-fluoro-4-{6-methoxy-7-[3-(4-methyl-piperazin-1-yl)-propoxy]-quinolin-4-yloxy}-phenyl)-amide] | ≤ 12.5 µM | 10 to 25 µM | 112 to 114 °C | ≤ 12.5 µM | < 0.5 µM
6 | COc1cc2c(Oc3ccc(NS(=O)(=O)c4csc5ccccc45)cc3Cl)ccnc2cc1OCCCN1CCN(C)CC1 [Example 117, Benzo[b]thiophene-3-sulfonic acid (3-chloro-4-{6-methoxy-7-[3-(4-methyl-piperazin-1-yl)-propoxy]-quinolin-4-yloxy}-phenyl)-amide] | ≤ 12.5 µM | 10 to 25 µM | 98 to 101 °C | ≤ 12.5 µM | < 0.5 µM
7 | COc1cc2c(Oc3ccc(NS(=O)(=O)c4cc(Cl)ccc4Cl)cc3Cl)ccnc2cc1OCCCN1CCN(C)CC1 [Example 124, 2,5-Dichloro-N-(3-chloro-4-{6-methoxy-7-[3-(4-methyl-piperazin-1-yl)-propoxy]-quinolin-4-yloxy}-phenyl)-benzenesulfonamide] | ≤ 12.5 µM | ≤ 10 µM | 144 to 145 °C | ≤ 12.5 µM | < 0.5 µM
8 | COc1cc2c(Oc3cccc(NS(=O)(=O)c4cc(Cl)ccc4Cl)c3)ccnc2cc1OCCCN1CCN(C)CC1 [Example 127, 2,5-Dichloro-N-(3-{6-methoxy-7-[3-(4-methyl-piperazin-1-yl)-propoxy]-quinolin-4-yloxy}-phenyl)-benzenesulfonamide] | ≤ 12.5 µM | ≤ 10 µM | 111 to 113 °C | ≤ 12.5 µM | 0.5 to 3 µM
9 | COc1cc2c(Oc3cccc(NS(=O)(=O)c4c(Cl)cccc4Cl)c3)ccnc2cc1OCCCN1CCN(C)CC1 [Example 128, 2,6-Dichloro-N-(3-{6-methoxy-7-[3-(4-methyl-piperazin-1-yl)-propoxy]-quinolin-4-yloxy}-phenyl)-benzenesulfonamide] | ≤ 12.5 µM | ≤ 10 µM | 111 to 112 °C | ≤ 12.5 µM | 0.5 to 3 µM
10 | COc1cc2c(Oc3cccc(NS(=O)(=O)c4cc(Cl)sc4Cl)c3)ccnc2cc1OCCCN1CCN(C)CC1 [Example 134, 2,5-Dichloro-thiophene-3-sulfonic acid (3-{6-methoxy-7-[3-(4-methyl-piperazin-1-yl)-propoxy]-quinolin-4-yloxy}-phenyl)-amide] | ≤ 12.5 µM | ≤ 10 µM | 177 to 178 °C | ≤ 12.5 µM | 0.5 to 3 µM
11 | COc1cc2c(Oc3cccc(NS(=O)(=O)c4csc5ccccc45)c3)ccnc2cc1OCCCN1CCN(C)CC1 [Example 136, Benzo[b]thiophene-3-sulfonic acid (3-{6-methoxy-7-[3-(4-methyl-piperazin-1-yl)-propoxy]-quinolin-4-yloxy}-phenyl)-amide] | ≤ 12.5 µM | ≤ 10 µM | 91 to 93 °C | ≤ 12.5 µM | 0.5 to 3 µM
12 | COc1cc2c(Oc3ccc(NS(=O)(=O)c4cccs4)cc3F)ccnc2cc1OCCCN1CCCCC1C (centres unmarked) [Example 144, Thiophene-2-sulfonic acid (3-fluoro-4-{6-methoxy-7-[3-(2-methyl-piperidin-1-yl)-propoxy]-quinolin-4-yloxy}-phenyl)-amide] | ≤ 12.5 µM | 10 to 25 µM | 117 to 119 °C | ≤ 12.5 µM | < 0.5 µM
13 | COc1cc2c(Oc3ccc(NS(=O)(=O)c4ccc(Cl)s4)cc3F)ccnc2cc1OCCCN1CCCCC1C (centres unmarked) [Example 145, 5-Chloro-thiophene-2-sulfonic acid (3-fluoro-4-{6-methoxy-7-[3-(2-methyl-piperidin-1-yl)-propoxy]-quinolin-4-yloxy}-phenyl)-amide] | ≤ 12.5 µM | 10 to 25 µM | 118 to 120 °C | ≤ 12.5 µM | < 0.5 µM
